Experimental data: paper PMC11189555, “Aryl amino acetamides prevent Plasmodium falciparum ring development via targeting the lipid-transfer protein PfSTART1” (Nature Communications, 2024)
Read-outs that look alike come from different tables or passages of the source.

Test system: PopD F7 M-833 resistant clone (PfSTART1 N309K)
Assay: Growth inhibition assay (72 h, LDH activity)
Format: cell-based, Plasmodium falciparum
Protocol: The drug was then removed, and parasites were allowed to recover. Another cycle of drug treatment (3 μM M-833) was then resumed. The resistant lines were cloned out by limiting dilution (diluting the culture into a 96-well plate to achieve an average of ~0.3 parasites per well), prior to growth inhibition assays and genomic DNA (gDNA) extraction (DNeasy Blood and Tissue kit (Qiagen)[18].
Parasite growth assays with inhibitory compounds were performed as per[11] and are fully described in the Supplementary Information.
Molecular biology and transfection of P. falciparum: CRISPR method.
The full 5’ homology region of pfstart1 (either WT, N309K or N330K) was amplified from pPfSTART1-HA-2A-Neo-glmS with the same 5’ BglII primer and a new 3’ primer that replaced with PstI with SpeI and introduced a stop codon. The PCR product was then digested with BglII and SpeI and inserted into similarly digested p1.2 parasite vector2. The p1.2 vector had previously been inserted with a homology region amplified from the 3’ end of the pfstart1 gene (3’HB) to form a second homology block for double recombination. The primers used to amplify 3’HB are listed primers listed in […]
60 μg of p1.2-PfSTART1(WT/N309K/N330K) plasmid was linearised with KasI, precipitated in 3 M sodium acetate and ethanol (70% final concentration) overnight at -20°C. The DNA pellet was washed in cold 70% ethanol and resuspended in cytomix 3.
50 μ M of crRNA ( Table S 2) and 50 μM of tracRNA (Integrated DNA Technologies) were allowed to form a duplex (5 min at 95°C), and Cas9 enzyme (Integrated DNA Technologies) was added, and incubated for 20 min at room temperature 4. This crRNA -tracRNA -Cas9 mix was added to each DNA preparation and transfected to 3D7 ring parasites using the Bio -Rad Gene Pulser at 310 V and 950 μF.
Parasites containing the transfected DNA were selected using 2.5 nM WR99210 (Jacobus). Parasites lines were cloned using limiting dilution. Correct integration was tested by PCR (using primer START_5’UTR.F and START_Int.R1 , Table S 2), and sequencing was done using the primers START_3F and START_Int.R2 (Table S 2).
Growth inhibition assays. Synchronised ring-stage parasites (0.3-0.6% parasitemia, 2% haematocrit) were grown for 72 h in a serial-dilution of the compound under […]
and compound 4. Note that M-833 was first purchased from MolPort (MolPort -002-267-916) then made in-house at WEHI: the differences observed in EC50s across experiments are attributed to the different batches of M -833. For some experiments, 0, 0.25 or 2.5 mM of glucosamine (GlcN) was also added. Experiments were set up in technical duplicates or triplicates. Following a freeze -thaw cycle, lactate dehydrogenase (LDH) activity was assessed as an indicator of parasite growt h 5. 30 μL of parasite culture was incubated for 30 min in the dark with 75 μL Malstat mixture (0.1 M Tris pH 9.0, 20 g/L lactic acid, pH 7.5, 0.2% Triton-X100, 0.5 g/L acetylpyridine adenine dinucleotide (APAD, Sigma), 200 μg/mL nitroblue tetrazolium (NBT; Sigma), 1 μg/mL phenozine ethosulfate (PES; Sigma)). Absorbance was then measured at 650 nm, transformed using the formula below, plotted against the logarithm of the concentrations, and a non-linear regression (log(inhibitor) vs. response, variable slope) was calculated using GraphPad Prism to assess the half-inhibitory […]
Growth inhibition % = (1 − average(sample)− average(uRBC)) ∗ 100 […]
The DMSO samples were also used to assess growth of parasite in the presence of 0.25 and 2.5 mM GlcN (normalised by DMSO in 0 mM GlcN).
Egress, invasion & recovery assay. To measure egress, invasion and follow up recovery in the presence of different compounds, we adapted the method developed in6, using Hyp1-Nluc parasites7. These parasites episomally express the exported PEXEL protein Hyp1 (PF3D7_0113300) tagged with a NanoLuc luciferase (NLuc) and were selected with 2.5 nM WR99210 (Jacobus). Highly synchronised schizonts were […]

With `Cc1cc(Cl)c(S(=O)(=O)N2CCCC2)cc1OCC(=O)NC1CCCCC1` [M-833] the “Normalised to DMSO” value (M-833 0.0390625 uM, Pop D-F7 replicate 1) was 102.746, the “Normalised to DMSO” value (M-833 0.0390625 uM, Pop D-F7 replicate 3) was 104.013 and the “Normalised to DMSO” value (M-833 0.078125 uM, Pop D-F7 replicate 1) was 103.501. For the same compound, the “Normalised to DMSO” value (M-833 0.078125 uM, Pop D-F7 replicate 3) was 102.629, the “Normalised to DMSO” value (M-833 0.15625 uM, Pop D-F7 replicate 1) was 104.635 and the “Normalised to DMSO” value (M-833 0.15625 uM, Pop D-F7 replicate 3) was 103.875. For the same compound, the “Normalised to DMSO” value (M-833 0.3125 uM, Pop D-F7 replicate 1) was 106.297, the “Normalised to DMSO” value (M-833 0.3125 uM, Pop D-F7 replicate 3) was 100.415 and the “Normalised to DMSO” value (M-833 0.625 uM, Pop D-F7 replicate 1) was 98.8413. The “Normalised to DMSO” value (M-833 0.625 uM, Pop D-F7 replicate 3) was 99.3081, the “Normalised to DMSO” value (M-833 1.25 uM, Pop D-F7 replicate 1) was 89.7985 and the “Normalised to DMSO” value (M-833 1.25 uM, Pop D-F7 replicate 3) was 89.8985. The “Normalised to DMSO” value (M-833 2.5 uM, Pop D-F7 replicate 1) was 74.9622, the “Normalised to DMSO” value (M-833 2.5 uM, Pop D-F7 replicate 3) was 59.8708 and the “Normalised to DMSO” value (M-833 5 uM, Pop D-F7 replicate 1) was 50.7053. The “Normalised to DMSO” value (M-833 5 uM, Pop D-F7 replicate 3) was 43.6808, the “Normalised to DMSO” value (M-833 10 uM, Pop D-F7 replicate 1) was 28.7406 and the “Normalised to DMSO” value (M-833 10 uM, Pop D-F7 replicate 3) was 39.9446. It also gave an inhibition at 0.0390625 µM (Plasmodium falciparum, M-833 0.0390625 uM, Pop D-F7 replicate 1, read-out: % Inhibition) of -2.75%, an inhibition at 0.0390625 µM (Plasmodium falciparum, M-833 0.0390625 uM, Pop D-F7 replicate 3, read-out: % Inhibition) of -4.01% and an inhibition at 0.078125 µM (Plasmodium falciparum, M-833 0.078125 uM, Pop D-F7 replicate 1, read-out: % Inhibition) of -3.5%. The inhibition at 0.078125 µM (Plasmodium falciparum, M-833 0.078125 uM, Pop D-F7 replicate 3, read-out: % Inhibition) was -2.63%, the inhibition at 0.15625 µM (Plasmodium falciparum, M-833 0.15625 uM, Pop D-F7 replicate 1, read-out: % Inhibition) was -4.63% and the inhibition at 0.15625 µM (Plasmodium falciparum, M-833 0.15625 uM, Pop D-F7 replicate 3, read-out: % Inhibition) was -3.87%. It also gave an inhibition at 0.3125 µM (Plasmodium falciparum, M-833 0.3125 uM, Pop D-F7 replicate 1, read-out: % Inhibition) of -6.3%, an inhibition at 0.3125 µM (Plasmodium falciparum, M-833 0.3125 uM, Pop D-F7 replicate 3, read-out: % Inhibition) of -0.415% and an inhibition at 0.625 µM (Plasmodium falciparum, M-833 0.625 uM, Pop D-F7 replicate 1, read-out: % Inhibition) of 1.16%. It also gave an inhibition at 0.625 µM (Plasmodium falciparum, M-833 0.625 uM, Pop D-F7 replicate 3, read-out: % Inhibition) of 0.692%, an inhibition at 1.25 µM (Plasmodium falciparum, M-833 1.25 uM, Pop D-F7 replicate 1, read-out: % Inhibition) of 10.2% and an inhibition at 1.25 µM (Plasmodium falciparum, M-833 1.25 uM, Pop D-F7 replicate 3, read-out: % Inhibition) of 10.1%. It also gave an inhibition at 2.5 µM (Plasmodium falciparum, M-833 2.5 uM, Pop D-F7 replicate 1, read-out: % Inhibition) of 25%, an inhibition at 2.5 µM (Plasmodium falciparum, M-833 2.5 uM, Pop D-F7 replicate 3, read-out: % Inhibition) of 40.1% and an inhibition at 5 µM (Plasmodium falciparum, M-833 5 uM, Pop D-F7 replicate 1, read-out: % Inhibition) of 49.3%. It also gave an inhibition at 5 µM (Plasmodium falciparum, M-833 5 uM, Pop D-F7 replicate 3, read-out: % Inhibition) of 56.3%, an inhibition at 10 µM (Plasmodium falciparum, M-833 10 uM, Pop D-F7 replicate 1, read-out: % Inhibition) of 71.3% and an inhibition at 10 µM (Plasmodium falciparum, M-833 10 uM, Pop D-F7 replicate 3, read-out: % Inhibition) of 60.1%. It also gave an inhibition at 0.0390625 µM (Plasmodium falciparum, Pop D-F7 replicate 1, M-833 0.0390625 uM) of -0.465%, an inhibition at 0.078125 µM (Plasmodium falciparum, Pop D-F7 replicate 1, M-833 0.078125 uM) of -0.401% and an inhibition at 0.15625 µM (Plasmodium falciparum, Pop D-F7 replicate 1, M-833 0.15625 uM) of 3.58%. It also gave an inhibition at 0.3125 µM (Plasmodium falciparum, Pop D-F7 replicate 1, M-833 0.3125 uM) of 2.21%, an inhibition at 0.625 µM (Plasmodium falciparum, Pop D-F7 replicate 1, M-833 0.625 uM) of 8.79% and an inhibition at 1.25 µM (Plasmodium falciparum, Pop D-F7 replicate 1, M-833 1.25 uM) of 10.1%. The inhibition at 2.5 µM (Plasmodium falciparum, Pop D-F7 replicate 1, M-833 2.5 uM) was 29%, the inhibition at 5 µM (Plasmodium falciparum, Pop D-F7 replicate 1, M-833 5 uM) was 45.3% and the inhibition at 10 µM (Plasmodium falciparum, Pop D-F7 replicate 1, M-833 10 uM) was 71.1%. The EC50 (Plasmodium falciparum, read-out: EC50 (95% confidence interval)) was 2970 nM, the “Normalised to DMSO” value (Pop D-F7 replicate 1, M-833 0.0390625 uM) was 100.465 and the “Normalised to DMSO” value (Pop D-F7 replicate 1, M-833 0.078125 uM) was 100.401. The “Normalised to DMSO” value (Pop D-F7 replicate 1, M-833 0.15625 uM) was 96.4217, the “Normalised to DMSO” value (Pop D-F7 replicate 1, M-833 0.3125 uM) was 97.7856 and the “Normalised to DMSO” value (Pop D-F7 replicate 1, M-833 0.625 uM) was 91.2067. The “Normalised to DMSO” value (Pop D-F7 replicate 1, M-833 1.25 uM) was 89.8748, the “Normalised to DMSO” value (Pop D-F7 replicate 1, M-833 2.5 uM) was 70.9884 and the “Normalised to DMSO” value (Pop D-F7 replicate 1, M-833 5 uM) was 54.6534. The “Normalised to DMSO” value (Pop D-F7 replicate 1, M-833 10 uM) was 28.9313.
